# Reference: patent US9335538B2, “Electrowetting display device and dye composition for electrowetting display” (FUJIFILM CORPORATION, priority 2012, dated 2016)
# Assays:
# Format in all cases: physicochemical
# [1] = Hue of colored solution, visual observation; conditions: 0.01% by mass normal decane solution, visually observed
# Experimental: (§1) A methine dye (the above-described exemplary compounds 5, 15, and 23 shown in Table 1 below were prepared) and normal decane (n-decane) which is an organic solvent were mixed. In this way, three kinds of 0.01% by mass normal decane solutions (colored compositions) each colored with a methine dye were prepared.
# (§2) With regard to each of the colored solutions thus prepared, the hue, absorption maximum wavelength (λmax), absorbance (abs), and absorption coefficient (∈) were measured and evaluated according to the methods described below. Further, with regard to each of the dyes described below, the solubility (% by mass) with respect to normal hexane (n-hexane) was measured and evaluated according to the method described below.
# (1) Hue Each of the colored solutions (colored compositions) was visually observed, and the hue thereof was judged.
# [2] = Solubility with respect to hexane
# Experimental: (3) Solubility with Respect to Hexane
# The solubility of each methine dye with respect to normal hexane (n-hexane) which is a nonpolar solvent was measured in a manner as described below.
# The dye was dissolved in normal hexane heated to 50° C. to prepare a saturated solution. Thereafter, the saturated solution thus obtained was left for one hour under an environment of 25° C. and 0.1 MPa.
# [3] = Absorption maximum wavelength, absorbance and absorption coefficient of colored solution (visible absorptiometer); conditions: 0.01% by mass normal decane solution
# Experimental: as §1, §2
# (2) Absorption Maximum Wavelength, Absorbance, and Absorption Coefficient
# With regard to the colored solutions (colored compositions), the absorption maximum wavelength (λmax) and the absorbance were measured using a visible absorptiometer (trade name: UV-1800PC, manufactured by Shimadzu Corp.), and the absorption coefficient (∈) was calculated based on the Lambert-Beer law.
smiles,measurement,setting,value
CCCCCCC(Oc1ccc(C(C)(C)CC)cc1C(C)(C)CC)C(=O)NCC(C)c1nc2/c(=C\c3c(C)nn4nc(C(C)CNC(=O)C(CCCCCC)Oc5ccc(C(C)(C)CC)cc5C(C)(C)CC)[nH]c34)c(C)nn2n1 (stereo not drawn) [Exemplary compound 5],Color of solution,[1],yellow
same,solubility with respect to hexane (in words),"[2]; hexane, a hydrocarbon solvent",high solubility
same,Solubility in hexane (%),"[2]; n-hexane, 25° C. and 0.1 MPa, % by mass",40 or more %
same,Absorbance (abs),[3],0.525
same,Absorption maximum wavelength (λmax),[3],441 nm
same,Absorption coefficient (ε),[3]; calculated based on the Lambert-Beer law,3.20 × 10^4
